Reference: patent US11208443B2, “NAF-1 derived peptides and uses thereof” (YISSUM RESEARCH DEVELOPMENT COMPANY OF THE HEBREW …, priority 2017, dated 2021)
Non-standard residues stand in square brackets, D forms with d. Residues, ends and D or L forms follow the SMILES beside them.

Tests used:
[1] = tested on: MDA-MB-231 breast cancer spheroids; assay: 3D spheroid apoptosis/cytotoxicity, Annexin V-red, IncuCyte; assay type: cell-based, human; settings: incubated for 36 hours, 10 or 50 μM, FIG. 11
Procedure: (§1) The MDA-MB-231 cells were plated in quadruplicate at 2×10^3 cells per well in a 96 well ULA plate (Corning 7007) and the cells were further cultured for 3 days to form spheroids. Then, the spheroids were treated with the peptides having SEQ ID NO:1 and the apoptosis of spheroids was assayed using Annexin V-red detection marker. Spheroids were imaged at ×10 magnification in an IncuCyte Zoom Live-cell analysis system (Essen Bioscience) at 37° C. with 5% CO2. Spheroid cell images were recorded every two hours and the resulting red colors, reflecting cell apoptosis, were analyzed with the IncuCyte software.)
(§2) Similarly to Example 2, the effect of D-PEP on “tumor like” 3D cancer cell spheroids of prostate cancer cells PC3 and MDA-MB-231, was tested and quantified. Annexin V-red apoptosis marker indicator was used to assess cytotoxicity and the cytotoxicity was calculated as integrated intensity over the surface (RCU×μm^2/Image).

[2] = tested on: PC3 (prostate cancer) spheroids; assay: 3D spheroid cytotoxicity, Annexin V-red, IncuCyte; assay type: cell-based
Procedure: as §1, §2

chymotrypsin = assay: Stability against protease cleavage, HPLC; assay type: in vitro ADME; settings: 0.001 mg/ml protease, 22° C., FIG. 17A
Procedure: (§3) Stability of the D-PEP, and 3D-PEP, analogs, and of PEG-N-3D-PEP and PEG-C-3D-PEP conjugates against protease cleavage (chymotrypsin and trypsin) was tested and compared to stability of the native peptide having SEQ ID NO: 1. To peptides' stocks of 430 μl in concentration of 450 μM were added 0.001 mg/ml protease (Trypsin or Chymotrypsin) and incubated in room temperature (22° C.). Samples of 40 μl were taken before adding the protease and after every 15 min in the first hour, and after 2 […] and 24 h. To stop the proteolysis samples were added 7 μl of 2% TFA in TDW. The samples were added 60 μl TDW and were analyzed using analytical HPLC.

[3] = Mice weight in xenograft study; assay type: in vivo; settings: 135 μg/Kg IP or IT, days 18-30; all groups
Procedure: 30 female athymic nude (FOXN1NU) mice (5-6 weeks old) were injected subcutaneously (S.C.) with 2.5×10^6 MDA-MB-231 cells overexpressing NAF-1. Two and half weeks (day 18) after S.C. injection, mice weight and tumor size was measured. Mice were divided into three different treatment groups that were administrated 3 serial injections per week, on days 18, 21, 23, 25, 28, and 30. The groups were as follows: Group 1: Intraperitoneal (IP) injection of 135 μg/Kg D-PEP; Group 2: Intratumoral (IT) injection of PBS—control; and Group 3: Intratumoral (IT) injection of 135 μg/Kg D-PEP. On days 18, 21, 23, 25, 28 and 30 after S.C. injection of the tumor cells, tumor size and mice weight was measured in all groups.

trypsin = assay: Stability against protease cleavage, HPLC; assay type: in vitro ADME; settings: 0.001 mg/ml protease, 450 μM peptide, 22° C.; FIG. 17B
Procedure: as §3

Row | metabolised at 1400 min, 450 μM (chymotrypsin; chymotrypsin (isolated protease), after 1400 min, read-out: peptide degraded by chymotrypsin) [%] | time to complete degradation by trypsin (trypsin) [min] | time to complete degradation by chymotrypsin (chymotrypsin; 450 μM peptide) [min] | Structure (SMILES) | cytotoxicity (total toxicity integrated intensity) [1] | cytotoxicity (total toxicity integrated intensity) ([2]; 10 μM, incubation for 8 hours, FIG. 7) | cytotoxicity (total toxicity integrated intensity) ([2]; 50 μM, 36 hour, compared to control, FIG. 8) | cytotoxicity (total toxicity integrated intensity) ([2]; 50 μM, incubation for 8 hours, FIG. 7) | mice weight [3]
1 | 20 |  |  | CC(C)C[C@@H](NC(=O)[C@H](N)Cc1ccccc1)C(=O)NCC(=O)N[C@@H](C(=O)N[C@H](CC(C)C)C(=O)N[C@H](C)C(=O)N[C@H](CC(C)C)C(=O)N[C@H](CC(C)C)C(=O)NCC(=O)N[C@H](Cc1ccc(O)cc1)C(=O)N[C@H](CC(C)C)C(=O)N[C@H](C)C(=O)N[C@@H](C(=O)N[C@H](CCCNC(=N)N)C(=O)N1CCC[C@@H]1C(=O)N[C@H](Cc1ccccc1)C(=O)N[C@H](CC(C)C)C(=O)N1CCC[C@@H]1C(=O)N[C@H](CCCCN)C(=O)N[C@H](CCCCN)C(=O)N[C@H](CCCCN)C(=O)N[C@H](CCC(N)=O)C(=O)N[C@H](CCC(N)=O)C(=O)N[C@H](CCCCN)C(=O)O)C(C)C)C(C)C [D-PEP, flgvlallgylavrpflpkkkqqk] (H-[dF][dL]G[dV][dL][dA][dL][dL]G[dY][dL][dA][dV][dR][dP][dF][dL][dP][dK][dK][dK][dQ][dQ][dK]-OH; N-terminus and C-terminus assumed) | comparable to that seen for PC3 cell | much more moderate | much more significant cytotoxic effect than 10 μM of D-PEP | substantial cytotoxic effect | not significant change in the weight of mice
2 |  | 400 | ~100 | CC(C)C[C@H](NC(=O)[C@H](C)NC(=O)[C@H](CC(C)C)NC(=O)[C@@H](NC(=O)CNC(=O)[C@H](CC(C)C)NC(=O)[C@@H](N)Cc1ccccc1)C(C)C)C(=O)N[C@@H](CC(C)C)C(=O)NCC(=O)N[C@@H](Cc1ccc(O)cc1)C(=O)N[C@@H](CC(C)C)C(=O)N[C@@H](C)C(=O)N[C@H](C(=O)N[C@@H](CCCNC(=N)N)C(=O)N1CCC[C@H]1C(=O)N[C@@H](Cc1ccccc1)C(=O)N[C@@H](CC(C)C)C(=O)N1CCC[C@H]1C(=O)N[C@@H](CCCCN)C(=O)N[C@@H](CCCCN)C(=O)N[C@@H](CCCCN)C(=O)N[C@@H](CCC(N)=O)C(=O)N[C@@H](CCC(N)=O)C(=O)N[C@@H](CCCCN)C(=O)O)C(C)C [SEQ ID NO: 1] (H-FLGVLALLGYLAVRPFLPKKKQQK-OH; N-terminus and C-terminus assumed) |  |  |  |  | 
